Values after ≈ are worked out from the molar mass of the structure shown. “Also recorded” adds a separate entry of the source. Like-named read-outs stand apart in the source and are kept apart here.
Experiments:
Assay type in all cases: cell-based
[1] = system: Streptococcus spp. clinical isolates; experiment: MIC distribution against clinical isolates; conditions: 54 Streptococcus spp. isolates
Source text: (n=19 S. pyogenes, n=20 S. agalactiae and n=20 Viridans group Streptococcus) clinical isolates (μg/mL).
(§1) As used herein, “minimum inhibitory concentration” or “MIC” refers to the lowest concentration of an antimicrobial agent, for example, an antimicrobial agent as described herein, required to inhibit the growth of an organism. […] “MIC90” represents the MIC value at which ≥90% of the strains within a test population are inhibited; the 90th percentile.
(§2) Many susceptibility testing methods are known in the art and can be used as described herein (see, e.g., Jorgensen and Ferraro (2009) Clinical Infectious Diseases 49:1749-1755; and Maurer et al. (2017) Infectious Disease Reports 9:6839; the entire contents of each of the foregoing are incorporated herein by reference). For example, antimicrobial susceptibility can be determined using conventional culture based methods such as the broth or agar dilution test. In these dilution tests, the bacterial isolate of interest is inoculated onto different media that include serial dilutions of an antimicrobial agent, and incubated under appropriate conditions (e.g., overnight at 37° C.) to allow for growth to occur. Following the incubation period, the media is examined to determine bacterial growth. The lowest concentration of antibiotic that prevents growth represents the minimal inhibitory concentration (MIC). Broth dilution tests can be miniaturized and mechanized allowing for reproducibility and high throughput.

[2] = system: Viridans group Streptococci clinical isolates; experiment: MIC distribution against clinical isolates; conditions: 15 Viridans group Streptococci isolates
Source text: as §1, §2

Enterococcus faecalis = experiment: Broth microdilution MIC, 50 clinical isolates
Method: (§3) Minimal inhibitory concentration (MIC) values were determined by broth microdilution or agar dilution in accordance with guidelines from the Clinical and Laboratory Standards Institute (CLSI; (1) “Methods for Dilution Antimicrobial Susceptibility Tests for Bacteria That Grow Aerobically; Approved Standard; 11th ed.” CLSI standard M07-A11, 2018; (2) “Performance Standards for Antimicrobial Susceptibility Testing; Twenty-Eighth Informational Supplement,” CLSI document M100-S28, 2018; and (3) “Methods for Antimicrobial Susceptibility Testing of Anaerobic Bacteria; Approved Standard—Eighth Edition,” CLSI document M11-A8, 2012).
(§4) Tested aerobically by broth microdilution: • Escherichia coli, n=50 • Klebsiella spp., n=50 • Pseudomonas aeruginosa, n=50 • Streptococcus spp., n=50 • Staphylococcus aureus, n=50 • Enterococcus faecalis, n=50 • Enterobacter aerogenes, n=50 • Proteus mirabilis, n=50
(§5) Broth microdilution testing of aerobic bacteria was conducted in cation-adjusted Mueller Hinton broth (MHBII). For testing streptococci, lysed horse blood (LHB) was added to MHBII broth at a final concentration of 3%. Where LHB was used, it was added after filtering.
(§6) Broth microdilution susceptibility testing in 96-well microplates was conducted in accordance with CLSI methods (1) and (2). Automated liquid handlers were used to conduct serial dilutions and liquid transfers, including the Multidrop 384 (Labsystems, Helsinki, Finland), Biomek 2000, and the Biomek FX (Beckman Coulter, Fullerton, Calif.). All wells in columns 2 through 12 of a standard 96-well microdilution plate (Costar 3795) were filled with 150 μL of the appropriate diluent. Then, 300 μL of the test agents were added to the wells of column 1 of the plates at 100× the highest final concentration to be tested. Serial two-fold dilutions were made across the rows through column 11 using the Biomek 2000. The wells of column 12 contained no drug and served as the growth control wells. This plate served as the “mother plate” from which MIC assay plates or “daughter plates” were made.
(§7) The daughter plates were loaded with 190 μL per well of the appropriate medium using the Multidrop 384. The daughter plates were created using the Biomek FX which transferred 2 μL of drug solution from each well of a mother plate to each corresponding well of the daughter plate in a single step. A standardized inoculum of each test organism was prepared per CLSI methods (1) to equal a 0.5 McFarland standard, followed by a dilution of 1:20 for aerobes and 1:10 for anaerobes. The plates were then inoculated with 10 μL of the diluted inoculum using the Biomek 2000 from low to high drug concentration, resulting in a final concentration of approximately 5×10^5 CFU/mL per well. An un-inoculated plate was incubated in parallel for each medium for the purpose of assessing solubility of the drug in the test media.
(§8) Inoculated plates were stacked 3 or 4 high, covered with a sterile lid on the top plate, placed into boxes with CO2 planchets (streptococci) or plastic bags (all other isolates). Plates were incubated at 35° C. for 16-24 hr in ambient air for aerobes or for 42-48 hr in the anaerobic environment of the Bactron II anaerobe chamber (Sheldon Manufacturing Co.; Cornelius, Oreg.). Following incubation, the microplates were removed from the incubator and viewed from the bottom using a plate viewer. The MIC values were read and recorded as the lowest concentration of drug that inhibited visible growth of the organism as per CLSI methods (1) and (2).

Staphylococcus aureus = experiment: Broth microdilution MIC, 50 clinical isolates (28 MRSA)
Method: as §3, §4, §5, §6, §7, §8

Streptococcus spp. = experiment: Broth microdilution MIC, 54 clinical isolates
Method: as §3, §4, §5, §6, §7, §8

Streptococcus pyogenes = experiment: Broth microdilution MIC, 19 clinical isolates
Method: as §3, §4, §5, §6, §7, §8

Streptococcus agalactiae = experiment: Broth microdilution MIC, 20 clinical isolates
Method: as §3, §4, §5, §6, §7, §8

[3] = system: Viridans group Streptococcus; experiment: Broth microdilution MIC, 15 clinical isolates
Method: as §3, §4, §5, §6, §7, §8

[4] = 54 Streptococcus spp. clinical isolates
[5] = 20 Streptococcus agalactiae clinical isolates
[6] = 15 Viridans group Streptococci clinical isolates

Q: What does the source list for `C[C@@H](O)[C@H]1C(=O)N2C(C(=O)O)=C(S[C@@H]3CN[C@H](C(=O)N(C)C)C3)[C@H](C)[C@H]12` [meropenem]?
A: Cumulative percentage of isolates inhibited at MIC ([1]; MIC 0.004 μg/mL): 29.6%; Number of test isolates at MIC ([1]; MIC 0.004 μg/mL): 15; Cumulative percentage of isolates inhibited at MIC ([1]; MIC 0.008 μg/mL): 40.7%; Number of test isolates at MIC ([1]; MIC 0.008 μg/mL): 6; Cumulative percentage of isolates inhibited at MIC ([1]; MIC 0.015 μg/mL): 57.4%; Number of test isolates at MIC ([1]; MIC 0.015 μg/mL): 9; Cumulative percentage of isolates inhibited at MIC ([1]; MIC 0.03 μg/mL): 92.6%; Number of test isolates at MIC ([1]; MIC 0.03 μg/mL): 19; Cumulative percentage of isolates inhibited at MIC ([1]; MIC 0.06 μg/mL): 94.4%; Number of test isolates at MIC ([1]; MIC 0.06 μg/mL): 1; Cumulative percentage of isolates inhibited at MIC ([1]; MIC 0.5 μg/mL): 100.0%; Number of test isolates at MIC ([1]; MIC 0.5 μg/mL): 2; Cumulative percentage of isolates inhibited at MIC ([1]; MIC […]): 96.3%; Number of test isolates at MIC ([1]; MIC […]): 1; Cumulative percentage of isolates inhibited at MIC ([1]; MIC ≤0.002 μg/mL): 1.9%; Number of test isolates at MIC ([1]; MIC ≤0.002 μg/mL): 1; Cumulative percentage of isolates inhibited at MIC ([2]; MIC 0.004 μg/mL): 6.7%; Number of test isolates at MIC ([2]; MIC 0.004 μg/mL): 1; Cumulative percentage of isolates inhibited at MIC ([2]; MIC 0.008 μg/mL): 26.7%; Number of test isolates at MIC ([2]; MIC 0.008 μg/mL): 3; Cumulative percentage of isolates inhibited at MIC ([2]; MIC 0.015 μg/mL): 60.0%; Number of test isolates at MIC ([2]; MIC 0.015 μg/mL): 5; Cumulative percentage of isolates inhibited at MIC ([2]; MIC 0.03 μg/mL): 80.0%; Number of test isolates at MIC ([2]; MIC 0.03 μg/mL): 3; Cumulative percentage of isolates inhibited at MIC ([2]; MIC 0.5 μg/mL): 100.0%; Number of test isolates at MIC ([2]; MIC 0.5 μg/mL): 2; Cumulative percentage of isolates inhibited at MIC ([2]; MIC […]): 86.7%; Number of test isolates at MIC ([2]; MIC […]): 1; Mode (Enterococcus faecalis): 4 µg/mL; MIC50 (Enterococcus faecalis; Enterococcus faecalis, read-out: MIC50): 4 µg/mL (≈ 10.4 µM); MIC90 (Enterococcus faecalis; Enterococcus faecalis, read-out: MIC90): 8 µg/mL (≈ 20.9 µM); Mode (Staphylococcus aureus): 0.12 µg/mL; MIC50 (Staphylococcus aureus; Staphylococcus aureus, read-out: MIC50): 1 µg/mL (≈ 2.61 µM); MIC90 (Staphylococcus aureus; Staphylococcus aureus, read-out: MIC90): 8 µg/mL (≈ 20.9 µM); isolates susceptible (Streptococcus spp.): All; relative activity among drugs tested (Streptococcus spp.): most active drug evaluated; also recorded: most active agent; MIC50 (Streptococcus spp.; [4]): 0.015 µg/mL (≈ 0.0391 µM); MIC90 (Streptococcus spp.; [4]): 0.03 µg/mL (≈ 0.0782 µM); MIC range (Streptococcus spp.; [4]): ≤0.002 to 0.5 µg/mL; % S (Streptococcus spp.; 54 Streptococcus spp. clinical isolates, MXF by FDA breakpoints): 100%; MIC50 (Streptococcus spp.; Streptococcus, read-out: MIC50): 0.015 µg/mL (≈ 0.0391 µM); MIC90 (Streptococcus spp.; Streptococcus, read-out: MIC90): 0.03 µg/mL (≈ 0.0782 µM); Mode (Streptococcus spp.; modal MIC, 54 Streptococcus spp. clinical isolates): 0.03 µg/mL; % S (Streptococcus pyogenes): 100%; MIC range (Streptococcus pyogenes): ≤0.002-0.03^ μg/mL; Mode (Streptococcus pyogenes): 0.004 µg/mL; MIC50 (Streptococcus pyogenes; Streptococcus pyogenes, read-out: MIC50): 0.004 µg/mL (≈ 0.0104 µM); MIC90 (Streptococcus pyogenes; Streptococcus pyogenes, read-out: MIC90): 0.008 µg/mL (≈ 0.0209 µM); MIC50 (Streptococcus agalactiae; [5]): 0.03 µg/mL (≈ 0.0782 µM); MIC90 (Streptococcus agalactiae; [5]): 0.03 µg/mL (≈ 0.0782 µM); MIC range (Streptococcus agalactiae; [5]): 0.015 to 0.06 µg/mL; % S (Streptococcus agalactiae; 20 Streptococcus agalactiae clinical isolates, MXF by FDA breakpoints): 100%; MIC50 (Streptococcus agalactiae; Streptococcus agalactiae, read-out: MIC50): 0.03 µg/mL (≈ 0.0782 µM); MIC90 (Streptococcus agalactiae; Streptococcus agalactiae, read-out: MIC90): 0.03 µg/mL (≈ 0.0782 µM); Mode (Streptococcus agalactiae; modal MIC, 20 Streptococcus agalactiae clinical isolates): 0.03 µg/mL; MIC50 [3, 6]: 0.015 µg/mL (≈ 0.0391 µM); MIC90 [3, 6]: 0.5 µg/mL (≈ 1.3 µM); MIC range [3, 6]: 0.004 to 0.5 µg/mL; % S ([3]; 15 Viridans group Streptococci clinical isolates, MXF by FDA breakpoints): 100%; MIC50 ([3]; Streptococcus, read-out: MIC50): 0.015 µg/mL (≈ 0.0391 µM); MIC90 ([3]; Streptococcus, read-out: MIC90): 0.5 µg/mL (≈ 1.3 µM); Mode ([3]; modal MIC, 15 Viridans group Streptococci clinical isolates): 0.015 µg/mL

From patent US20210386367A1, “DEVICES AND SYSTEMS FOR GASTROINTESTINAL MICROBIOME DETECTION AND MANIPULATION” (Progenity, Inc., priority 2018, published 2021)
